# Tests used:
# FGFR3 enzyme = FGFR3 enzyme (Homo sapiens (Human), UniProt P22607); test: FGFR Enzymatic Assay (peptide phosphorylation, FRET), FGFR3; type: biochemical; conditions: IC50 ratio showing FGFR3 selectivity; pre-incubated for 4 hours
# Procedure: (§1) The inhibitor potency of the exemplified compounds was measured in an enzyme assay that measures peptide phosphorylation using FRET measurements to detect product formation. Inhibitors were serially diluted in DMSO and a volume of 0.5 μL was transferred to the wells of a 384-well plate.
# (§2) GraphPad prism3 was used to analyze the data.
# FGFR4 = FGFR4 (Homo sapiens (Human), UniProt P22455); test: FGFR Enzymatic Assay (peptide phosphorylation, FRET), FGFR4; type: biochemical
# Procedure: as §1
# The enzymes were purchased from Millipore or Invitrogen.
# as §2
# [1] = IC50 ratio showing FGFR4 selectivity, pre-incubated for 4 hours
# [2] = ratio of IC50 data showing FGFR4 selectivity, pre-incubated for 5 to 10 minutes
# Chain of FGFR4 (P22455 22-802): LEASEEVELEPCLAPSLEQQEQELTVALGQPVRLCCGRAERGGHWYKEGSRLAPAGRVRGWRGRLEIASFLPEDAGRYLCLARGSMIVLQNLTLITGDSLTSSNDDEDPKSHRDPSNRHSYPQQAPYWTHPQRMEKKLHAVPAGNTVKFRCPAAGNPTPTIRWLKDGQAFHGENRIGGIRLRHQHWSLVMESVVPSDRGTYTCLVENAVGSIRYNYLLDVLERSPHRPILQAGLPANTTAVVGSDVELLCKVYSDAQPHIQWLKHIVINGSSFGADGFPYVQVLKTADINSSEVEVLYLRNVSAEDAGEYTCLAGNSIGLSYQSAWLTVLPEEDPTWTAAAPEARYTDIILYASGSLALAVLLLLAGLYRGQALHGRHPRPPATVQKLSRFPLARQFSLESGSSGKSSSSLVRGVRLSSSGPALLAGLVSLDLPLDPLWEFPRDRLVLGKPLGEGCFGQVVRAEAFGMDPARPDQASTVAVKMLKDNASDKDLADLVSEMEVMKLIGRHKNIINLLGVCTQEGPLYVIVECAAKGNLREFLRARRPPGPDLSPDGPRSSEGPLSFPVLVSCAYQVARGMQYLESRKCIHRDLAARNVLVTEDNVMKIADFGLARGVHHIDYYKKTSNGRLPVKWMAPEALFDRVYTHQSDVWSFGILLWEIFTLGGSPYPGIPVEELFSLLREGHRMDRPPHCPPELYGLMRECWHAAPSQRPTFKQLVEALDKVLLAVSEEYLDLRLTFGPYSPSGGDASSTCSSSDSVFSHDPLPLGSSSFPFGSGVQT
# Chain of FGFR3 enzyme (P22607 23-806): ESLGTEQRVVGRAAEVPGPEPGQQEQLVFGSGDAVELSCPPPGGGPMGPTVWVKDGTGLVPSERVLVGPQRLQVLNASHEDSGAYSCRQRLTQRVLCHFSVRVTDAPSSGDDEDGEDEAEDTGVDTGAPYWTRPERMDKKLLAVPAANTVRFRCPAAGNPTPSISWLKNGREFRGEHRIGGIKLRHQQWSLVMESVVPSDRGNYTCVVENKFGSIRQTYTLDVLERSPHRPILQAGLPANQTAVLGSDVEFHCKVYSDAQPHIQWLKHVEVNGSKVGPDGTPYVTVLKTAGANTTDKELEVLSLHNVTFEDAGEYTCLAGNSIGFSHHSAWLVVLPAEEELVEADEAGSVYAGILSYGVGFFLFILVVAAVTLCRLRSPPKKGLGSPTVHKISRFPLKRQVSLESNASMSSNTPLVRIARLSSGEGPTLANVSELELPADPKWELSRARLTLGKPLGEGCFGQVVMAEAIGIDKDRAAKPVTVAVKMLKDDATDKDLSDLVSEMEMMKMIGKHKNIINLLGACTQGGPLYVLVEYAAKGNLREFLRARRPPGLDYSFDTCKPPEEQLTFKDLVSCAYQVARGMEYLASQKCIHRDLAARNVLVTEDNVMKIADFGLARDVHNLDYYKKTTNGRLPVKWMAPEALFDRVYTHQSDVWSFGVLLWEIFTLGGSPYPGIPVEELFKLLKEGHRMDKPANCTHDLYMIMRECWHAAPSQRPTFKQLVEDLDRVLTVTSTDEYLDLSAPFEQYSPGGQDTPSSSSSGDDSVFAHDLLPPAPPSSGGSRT
smiles,measurement,setting,value
"COc1cc(OC)c(F)c(N2Cc3cnc(-c4cncc(CN5CCOCC5)c4)cc3C3(CC3)C2=O)c1F [Example 16, 2′-(2,6-difluoro-3,5-dimethoxyphenyl)-6′-(5-(morpholinomethyl)pyridin-3-yl)-1′H-spiro[cyclopropane-1,4′-[2,7]naphthyridin]-3′(2′H)-one]",FGFR1/FGFR3,FGFR3 enzyme,>1
same,FGFR1/FGFR4,FGFR4; [1],>50
same,FGFR2/FGFR4,FGFR4; [1],>25
same,FGFR3/FGFR4,FGFR4; [1],>10
same,FGFR1/FGFR4,FGFR4; [2],>25
same,FGFR2/FGFR4,FGFR4; [2],>10
same,FGFR3/FGFR4,FGFR4; [2],>10

# — US10251892B2, “Bicyclic heterocycles as FGFR4 inhibitors” (Incyte Corporation, priority 2015, dated 2019)
